Data from patent publication US10350252B2, “Cocoa polyphenols and their use in the treatment or prevention of eosinophilic esophagitis” (NESTEC S.A., priority 2013, dated 2019).

System: eosinophils in the esophagus
Assay: Mouse model of eosinophilic esophagitis (epicutaneous Aspergillus fumigatus sensitization, intranasal challenge): eosinophil count in H&E stained esophagus
Format: in vivo, Balb/c mice
Conditions: compared to the positive control (3X ASP sensitized, 1x ASP challenged, untreated); test substance in the food; harvest on day 32
Procedure: It is the object of the invention to provide new and alternative solutions to the problem of preventing or treating eosinophilic esophagitis. […] The evaluation of ingredients which are useful in the treatment or prevention of eosinophilic esophagitis is performed using an established mouse model for eosinophilic esophagitis (Akei et al., “Epicutaneous antigen exposure primes for experimental eosinophilic esophagitis in mice”, Gastroenterology, 2005 September; 129(3):985-94). This model uses various parameters including the number of eosinophils in the esophagus as indicators for the effect on eosinophilic esophagitis. Accordingly, is ideally suited for the testing of compounds that are candidates for the treatment or prevention of eosinophilic esophagitis. FIG. 2. Eosinophil number in the esophagus. The esophagea were harvested and tissue histology was performed. Eosinophils were identified and counted on Hematoxylin & Eosin (H&E) stained slides per high powered field (hpf). The maximal number of eosinophils found in one hpf field in the whole esophagus is shown. The maximal number of eosinophils present in the esophagal epithelium is represented. […] Esophagi were harvest and stained with hematoxylin eosin and eosinophils were counted (maximum/high power field, see FIG. 2).

## Oc1cc(O)c2c(c1)O[C@H](c1ccc(O)c(O)c1)[C@H](O)C2 [epicatechin]
  reduction of eosinophils in the esophagus (maximum number per high power field): no effect
